Source: patent US10377718B2, “Apelin receptor (APJ) agonists and uses thereof” (Research Triangle Institute, priority 2014, dated 2019)
Each block holds one molecule with its values, some of them ahead of it.

Assays:
apelin receptor (APJ) = molecular target: T1, apelin receptor (APJ) (Homo sapiens, UniProt P35414); assay: in vitro apelin agonist activity (methods of Giddings et al., Apelin-13 as positive control); assay type: cell-based; conditions: apelin agonist activity, Giddings et al. method; read-out: agonist activity (EC50)
T1 sequence (P35414 1-380): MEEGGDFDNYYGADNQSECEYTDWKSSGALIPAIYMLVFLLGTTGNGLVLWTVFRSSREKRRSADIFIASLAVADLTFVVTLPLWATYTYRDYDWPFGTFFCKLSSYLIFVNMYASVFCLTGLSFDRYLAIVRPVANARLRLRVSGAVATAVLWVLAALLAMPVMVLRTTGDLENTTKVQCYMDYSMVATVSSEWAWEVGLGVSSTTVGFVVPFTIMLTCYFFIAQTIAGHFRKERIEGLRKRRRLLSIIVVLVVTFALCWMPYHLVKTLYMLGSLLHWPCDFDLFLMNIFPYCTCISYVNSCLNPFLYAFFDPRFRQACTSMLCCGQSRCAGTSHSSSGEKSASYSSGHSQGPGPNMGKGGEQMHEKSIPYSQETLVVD
Excerpt: The compounds above were studied for their in vitro activity as apelin agonists using the methods described by Giddings et al. Giddings et al., 2010 Int J High Thro Screen. 1:39-47, the contents of which are hereby incorporated by reference in its entirety.

C57BL/6 mice = assay: in vivo blood pressure lowering activity, non-invasive blood pressure and heart rate after IP injection; set-up: Systolic Baseline / Diastolic Baseline: unit not given here; conditions: for Diastolic Baseline / HR Baseline / Mean pressure Baseline / Systolic Baseline: baseline before dosing; for Diastolic % change / HR % change / Mean pressure % change / Systolic % change: postdose vs baseline; for HR Postdose: in bpm (unit assumed); for Diastolic Postdose / Mean pressure Postdose / Systolic Postdose: in mmHg (unit assumed)
Description: The compounds were also assayed for blood pressure activity using C57BL/6 mice and the procedure described by Tatemoto et al. The novel peptide apelin lowers blood pressure via a nitric oxide-dependent mechanism. Regul Pept. 2001; 99: 87-92. […] Studies have been published citing reductions in blood pressure occur following peptide apelin administration. Apelin-13 was used as a positive control. Knockout C57BL/6 mice lacking APJ have cardiovascular deficiencies. […] Charo et al. Am J Physiol Heart Circ Physiol. 2009 November 297(5):[…] et al. J Physiol Biochem. 2007 December; 63(4):359-73. Blood pressure measurements in these species of mice have been reported in the literature. […] et al. Am J Physiol Heart Circ Physiol. 2003 February; 284(2):[…]-74. On the first day of the study, 11 animals were treated with apelin-13, 11 with vehicle alone, and 11 as sham controls. The two later groups were used to determine effects (if any) of the vehicle or injection alone on blood pressure (BP). The experiment was conducted as follows: The animals were restrained and a baseline measurement taken for 5 min. Animals were injected and immediately monitored for 15 minutes. The effect of test agents should be apparent within this time. Tatemoto et al. reported that the effects of Apelin-13 were apparent within minutes. Tatemoto et al. 2001 Immediately following dosing, blood pressure (diastolic, systolic and mean pressure) and heart rate for each animal was recorded for up to 15 minutes using a Kent Scientific CODA Non-Invasive Blood Pressure System. […] On day 2-5 a similar protocol was used in increasing doses. The animals were randomized daily in three groups of 11 to receive either of the two experimental compounds by IP injection. […] At the end of the 5-day dosing period, all animals were humanely euthanized. [table]

- EC50 (apelin receptor (APJ)): < 10 µM
Structure (SMILES): CCCCNC(=O)C[C@H](CC(C)C)NC(=O)c1cc(-c2c(OC)cccc2OC)n(CC(C)C)n1 [compound 143, (S)-N-(1-(Butylamino)-5-methyl-1-oxohexan-3-yl)-5-(2,6-dimethoxyphenyl)-1-isobutyl-1H-pyrazole-3-carboxamide]
- Diastolic Baseline (C57BL/6 mice; Day 2, 1 mg/kg IP): 127
- HR Baseline (C57BL/6 mice; Day 2, 1 mg/kg IP): 706
- Mean pressure Baseline (C57BL/6 mice; Day 2, 1 mg/kg IP): 138
- Systolic Baseline (C57BL/6 mice; Day 2, 1 mg/kg IP): 161
- Diastolic % change (C57BL/6 mice; Day 2, 1 mg/kg IP): 1%
- HR % change (C57BL/6 mice; Day 2, 1 mg/kg IP): 3%
- Mean pressure % change (C57BL/6 mice; Day 2, 1 mg/kg IP): 0%
- Systolic % change (C57BL/6 mice; Day 2, 1 mg/kg IP): −1%
- HR Postdose (C57BL/6 mice; Day 2, 1 mg/kg IP): 727
- Diastolic Postdose (C57BL/6 mice; Day 2, 1 mg/kg IP): 129
- Mean pressure Postdose (C57BL/6 mice; Day 2, 1 mg/kg IP): 139
- Systolic Postdose (C57BL/6 mice; Day 2, 1 mg/kg IP): 160
- Diastolic Baseline (C57BL/6 mice; Day 3, 3 mg/kg IP): 132
- HR Baseline (C57BL/6 mice; Day 3, 3 mg/kg IP): 665
- Mean pressure Baseline (C57BL/6 mice; Day 3, 3 mg/kg IP): 142
- Systolic Baseline (C57BL/6 mice; Day 3, 3 mg/kg IP): 163
- Diastolic % change (C57BL/6 mice; Day 3, 3 mg/kg IP): −4%
- HR % change (C57BL/6 mice; Day 3, 3 mg/kg IP): 15%
- Mean pressure % change (C57BL/6 mice; Day 3, 3 mg/kg IP): −4%
- Systolic % change (C57BL/6 mice; Day 3, 3 mg/kg IP): −3%
- HR Postdose (C57BL/6 mice; Day 3, 3 mg/kg IP): 763
- Diastolic Postdose (C57BL/6 mice; Day 3, 3 mg/kg IP): 127
- Mean pressure Postdose (C57BL/6 mice; Day 3, 3 mg/kg IP): 137
- Systolic Postdose (C57BL/6 mice; Day 3, 3 mg/kg IP): 158
- Diastolic Baseline (C57BL/6 mice; Day 4, 10 mg/Kg IP): 131.3
- HR Baseline (C57BL/6 mice; Day 4, 10 mg/Kg IP): 669.3
- Mean pressure Baseline (C57BL/6 mice; Day 4, 10 mg/Kg IP): 143
- Systolic Baseline (C57BL/6 mice; Day 4, 10 mg/Kg IP): 167.5
- Diastolic % change (C57BL/6 mice; Day 4, 10 mg/Kg IP): −5%
- HR % change (C57BL/6 mice; Day 4, 10 mg/Kg IP): 11%
- Mean pressure % change (C57BL/6 mice; Day 4, 10 mg/Kg IP): −6%
- Systolic % change (C57BL/6 mice; Day 4, 10 mg/Kg IP): −6%
- HR Postdose (C57BL/6 mice; Day 4, 10 mg/Kg IP): 745
- Diastolic Postdose (C57BL/6 mice; Day 4, 10 mg/Kg IP): 124.2
- Mean pressure Postdose (C57BL/6 mice; Day 4, 10 mg/Kg IP): 134.8
- Systolic Postdose (C57BL/6 mice; Day 4, 10 mg/Kg IP): 157.1
- Diastolic Baseline (C57BL/6 mice; Day 5, 30 mg/Kg IP): 130
- HR Baseline (C57BL/6 mice; Day 5, 30 mg/Kg IP): 733.9
- Mean pressure Baseline (C57BL/6 mice; Day 5, 30 mg/Kg IP): 141
- Systolic Baseline (C57BL/6 mice; Day 5, 30 mg/Kg IP): 164.1
- Diastolic % change (C57BL/6 mice; Day 5, 30 mg/Kg IP): −9%
- HR % change (C57BL/6 mice; Day 5, 30 mg/Kg IP): −2%
- Mean pressure % change (C57BL/6 mice; Day 5, 30 mg/Kg IP): −9%
- Systolic % change (C57BL/6 mice; Day 5, 30 mg/Kg IP): −8%
- HR Postdose (C57BL/6 mice; Day 5, 30 mg/Kg IP): 722.8
- Diastolic Postdose (C57BL/6 mice; Day 5, 30 mg/Kg IP): 118.8
- Mean pressure Postdose (C57BL/6 mice; Day 5, 30 mg/Kg IP): 128.9
- Systolic Postdose (C57BL/6 mice; Day 5, 30 mg/Kg IP): 150.2

- EC50 (apelin receptor (APJ)): < 10 µM
Structure (SMILES): COc1cccc(OC)c1-c1cc(C(=O)N[C@H](CC(=O)NC2CCC2)CC(C)C)nn1CC(C)C [compound 173]
- Diastolic Baseline (C57BL/6 mice; Day 2, 1 mg/kg IP): 114
- HR Baseline (C57BL/6 mice; Day 2, 1 mg/kg IP): 681
- Mean pressure Baseline (C57BL/6 mice; Day 2, 1 mg/kg IP): 126
- Systolic Baseline (C57BL/6 mice; Day 2, 1 mg/kg IP): 151
- Diastolic % change (C57BL/6 mice; Day 2, 1 mg/kg IP): 3%
- HR % change (C57BL/6 mice; Day 2, 1 mg/kg IP): 5%
- Mean pressure % change (C57BL/6 mice; Day 2, 1 mg/kg IP): 1%
- Systolic % change (C57BL/6 mice; Day 2, 1 mg/kg IP): −1%
- HR Postdose (C57BL/6 mice; Day 2, 1 mg/kg IP): 716
- Diastolic Postdose (C57BL/6 mice; Day 2, 1 mg/kg IP): 118
- Mean pressure Postdose (C57BL/6 mice; Day 2, 1 mg/kg IP): 128
- Systolic Postdose (C57BL/6 mice; Day 2, 1 mg/kg IP): 149
- Diastolic Baseline (C57BL/6 mice; Day 3, 3 mg/kg IP): 127
- HR Baseline (C57BL/6 mice; Day 3, 3 mg/kg IP): 661
- Mean pressure Baseline (C57BL/6 mice; Day 3, 3 mg/kg IP): 136
- Systolic Baseline (C57BL/6 mice; Day 3, 3 mg/kg IP): 156
- Diastolic % change (C57BL/6 mice; Day 3, 3 mg/kg IP): 2%
- HR % change (C57BL/6 mice; Day 3, 3 mg/kg IP): 12%
- Mean pressure % change (C57BL/6 mice; Day 3, 3 mg/kg IP): 2%
- Systolic % change (C57BL/6 mice; Day 3, 3 mg/kg IP): 2%
- HR Postdose (C57BL/6 mice; Day 3, 3 mg/kg IP): 738
- Diastolic Postdose (C57BL/6 mice; Day 3, 3 mg/kg IP): 129
- Mean pressure Postdose (C57BL/6 mice; Day 3, 3 mg/kg IP): 139
- Systolic Postdose (C57BL/6 mice; Day 3, 3 mg/kg IP): 159
- Diastolic Baseline (C57BL/6 mice; Day 4, 10 mg/Kg IP): 114.9
- HR Baseline (C57BL/6 mice; Day 4, 10 mg/Kg IP): 682.5
- Mean pressure Baseline (C57BL/6 mice; Day 4, 10 mg/Kg IP): 126.3
- Systolic Baseline (C57BL/6 mice; Day 4, 10 mg/Kg IP): 150.5
- Diastolic % change (C57BL/6 mice; Day 4, 10 mg/Kg IP): 4%
- HR % change (C57BL/6 mice; Day 4, 10 mg/Kg IP): 10%
- Mean pressure % change (C57BL/6 mice; Day 4, 10 mg/Kg IP): 2%
- Systolic % change (C57BL/6 mice; Day 4, 10 mg/Kg IP): 0%
- HR Postdose (C57BL/6 mice; Day 4, 10 mg/Kg IP): 749.4
- Diastolic Postdose (C57BL/6 mice; Day 4, 10 mg/Kg IP): 119.3
- Mean pressure Postdose (C57BL/6 mice; Day 4, 10 mg/Kg IP): 129.2
- Systolic Postdose (C57BL/6 mice; Day 4, 10 mg/Kg IP): 150
- Diastolic Baseline (C57BL/6 mice; Day 5, 30 mg/Kg IP): 122.2
- HR Baseline (C57BL/6 mice; Day 5, 30 mg/Kg IP): 701.1
- Mean pressure Baseline (C57BL/6 mice; Day 5, 30 mg/Kg IP): 133
- Systolic Baseline (C57BL/6 mice; Day 5, 30 mg/Kg IP): 155.7
- Diastolic % change (C57BL/6 mice; Day 5, 30 mg/Kg IP): −4%
- HR % change (C57BL/6 mice; Day 5, 30 mg/Kg IP): 3%
- Mean pressure % change (C57BL/6 mice; Day 5, 30 mg/Kg IP): −4%
- Systolic % change (C57BL/6 mice; Day 5, 30 mg/Kg IP): −5%
- HR Postdose (C57BL/6 mice; Day 5, 30 mg/Kg IP): 721.7
- Diastolic Postdose (C57BL/6 mice; Day 5, 30 mg/Kg IP): 117.5
- Mean pressure Postdose (C57BL/6 mice; Day 5, 30 mg/Kg IP): 127.4
- Systolic Postdose (C57BL/6 mice; Day 5, 30 mg/Kg IP): 148.2
